Here are results for seven compounds from patent US20230247992A1, “ARTHROPOD CONTROL COMPOSITION” (Firmenich SA, priority 2020, published 2023).

Common to all, as to type: in vivo
For assay [1], the system named is Aedes aegypti. The experiment in a line: in vitro Warm Body assay, substance applied on glass Petri dish on top of the warm body (deterrence and repellence). The protocol:
(§1) The controlling effect, repellence & spatial repellence, according to the present invention is determined by testing the Warm Body assay against the yellow fever mosquito, Aedes aegypti Rockefeller strain. […] Observations of controlling efficacy were made on host-seeking females of uniform age, 5 to 10 days old selected as mentioned in the publication mentioned hereinabove. Tested hungry females had access to 10% sugar solution but were not blood-fed. Further information is provided in the accompanying examples.
(§2) The published protocol has been adapted in not manually counting the landing mosquitoes but automatically using an automatic counting software, the switch from Anopheles gambiae to A. aegypti led to a decrease of mosquitoes’ number placed in the tested cage due to the size difference (i.e. 30 mosquitoes instead of 50) and to an increase of lighting as A. aegypti is a diurnal mosquitoes (i.e. 150 lux instead of 4 lux). Further information is provided in the accompanying examples.,
(§3) The controlling effect of the compositions according to the present invention was assessed using an adapted Warm Body assay as defined in Kröber T, Kessler S, Frei J, Bourquin M, Guerin PM. 2010. An in vitro assay for testing mosquito controlling compounds employing a warm body and carbon dioxide as a behavioral activator. J Am Mosq Control Assoc. 26:381-386. In this in-vitro assay the number of mosquito landing on a warm body, simulating an attractive host treated with the tested stimuli, was measured in order to assess the repellence effect.
(§4) The published protocol has been adapted in not manually counting the landing mosquitoes but automatically using an automatic counting software, the switch from Anopheles gambiae to Aedes aegypti led to a decrease of mosquitoes’ number placed in the tested cage due to the size difference (i.e. 30 mosquitoes instead of 50) and to an increase of lighting as A. aegypti is a diurnal mosquitoes (i.e. 150 lux instead of 4 lux).
(§5) In addition, since the inventors were interested by assessing spatial repellence added or not to a deterrent effect, the substance was applied using two different technics. Whether, as in Kröber et al. (2010), both deterrent and repellent effect were investigated (i.e. similar effect than most body care applications such as lotion) and the substances was applied on a sandblasted glass Petri dish placed on top of the warm body. Whether only the spatial repellence was investigated (i.e. similar effect than most home care applications such as liquid electric dispenser) and the substance was introduced in the cage space thanks to a forced evaporation system as described in Chappuis C J-F, Niclass Y, Vuilleumier C, Starkenmann C. 2015. Quantitative Headspace Analysis of Selected Odorants from Latrines in Africa and India. Environ. Sci. Technol. 49:6134-6140.
(§6) As stated in Kröber et al. (2010), selected 10-12 days old hungry females, that had ad libitum access to 10% sugar solution but were not blood-fed, were selected for the assay.
On the sandblasted glass Petri dish covering the warm body (28.3 cm^2), 100 µL of the substances diluted at different concentrations in ethanol was applied. The number of mosquito landing on the warm body was counted for each stimuli, N,N-diethyl-3-methylbenzamide (DEET) and ethyl 3-[acetyl(butyl)amino]propanoate (IR3535) being used as benchmarks and pure ethanol as control.

For assay [2], the system named is Aedes aegypti. Put plainly: in vitro Warm Body assay, substance introduced in the cage air by forced evaporation (spatial repellence). The settings on record: for landings in 2 minutes: dose of 0.17 µg/L of air. The protocol: as §1, §2, §3, §4, §5, §6
The forced evaporation system allows to fill the volume of the cage with stimuli tested, (2-methyl-4-oxo-3-prop-2-ynylcyclopent-2-en-1-yl) 2,2-dimethyl-3-(2-methylprop-1-enyl)cyclopropane-1-carboxylate (prallethrin) and N,N-diethyl-3-methylbenzamide (DEET) being used as benchmarks. In order to limit potential dead volumes in the cage, five flushes of the cage were made before starting the 2 minutes test during which the number of mosquito landings was counted.

Another assay deals with Ixodes ricinus. The experiment in a line: whole plant or invertebrate. Particulars: for pest or weed control at 1 µg/cm2, 1 µg/cm2 / pest or weed control at 5 µg/cm2, 5 µg/cm2 / pest or weed control at 25 µg/cm2, 25 µg/cm2: Ixodes ricinus, read-out: mean percentage of ticks affected.
The mark [3] stands for this setting: 0.04% in ethanol, ethanol control 59.3±6.9 landings.
The mark [4] stands for this setting: 1% in ethanol, ethanol control 59.3±6.9 landings.
Where [5] appears, read: […] in ethanol, ethanol control 59.3±6.9 landings.
The mark [6] stands for this setting: 0.0017 µg/L air, without substance 54.7±3.2.
Setting [7] is: 0.017 µg/L air, without substance 54.7±3.2.
The mark [8] stands for this setting: 0.17 µg/L air, without substance 54.7±3.2.
[9] abbreviates: 1.7 µg/L air, without substance 54.7±3.2.
Setting [10] is: 17 µg/L air, without substance 54.7±3.2.
Setting [11] is: 0.04% in ethanol, ethanol control 67.1±9.1 landings.
Setting [12] is: 1% in ethanol, ethanol control 67.1±9.1 landings.
Where [13] appears, read: […] in ethanol, ethanol control 67.1±9.1 landings.
Where [14] appears, read: 0.0017 µg/L air, without substance 56.0±3.6.
The mark [15] stands for this setting: 0.017 µg/L air, without substance 56.0±3.6.
Where [16] appears, read: 0.17 µg/L air, without substance 56.0±3.6.
The mark [17] stands for this setting: 1.7 µg/L air, without substance 56.0±3.6.
The mark [18] stands for this setting: 17 µg/L air, without substance 56.0±3.6.

Like-named read-outs stand apart in the source and are kept apart here.

For the compound `O=c1ccc2ccccc2o1` [chromen-2-one], the figures for the “number of mosquitoes landing within 2 minutes on the warm body” value in the assay on Aedes aegypti [1] (setting [3]), in the assay on Aedes aegypti [1] (setting [4]) and with Aedes aegypti [1] (setting [5]) were 0.0, 1.0 and 118.0, respectively. Further, the “number of mosquitoes landing within 2 minutes on the warm body, air in the cage saturated with stimulus” value (“number … with stimulus” below) was found to be 36.0 in the assay with Aedes aegypti [2] (setting [6]); 3.0 in the assay with Aedes aegypti [2] (setting [7]); 10.0 in the assay with Aedes aegypti [2] (setting [8]); 1.0 in the assay on Aedes aegypti [2] (setting [9]); 0.0 in the assay with Aedes aegypti [2] (setting [10]). Besides, the pest or weed control at 1 µg/cm2, 1 µg/cm2 in the assay with Ixodes ricinus was found to be 27%. The pest or weed control at 5 µg/cm2, 5 µg/cm2 with Ixodes ricinus turned out to be 71%. Besides, in the assay with Ixodes ricinus, the pest or weed control at 25 µg/cm2, 25 µg/cm2 was found to be 80%. Further, the “tick response compared with the benchmark IR3535” value in the assay on Ixodes ricinus (concentrations tested) is on record as “response similar to the benchmark IR3535”.

Regarding `C=Cc1ccc(O)c(OC)c1` [4-ethenyl-2-methoxyphenol], the “number of mosquitoes landing within 2 minutes on the warm body” value with Aedes aegypti [1] (setting [11]) was 5.0; in the assay on Aedes aegypti [1] (setting [12]), 0.0; in the assay with Aedes aegypti [1] (setting [13]), 36.0. Further, the “number … with stimulus” value in the assay on Aedes aegypti [2] (setting [14]) turned out to be 11.0; in the assay with Aedes aegypti [2] (setting [15]), 15.0; with Aedes aegypti [2] (setting [16]) it was 0.0; with Aedes aegypti [2] (setting [17]), 3.0; in the assay on Aedes aegypti [2] (setting [18]) it was 2.0. Also, in the assay with Aedes aegypti [2], the “landings in 2 minutes” value is “less than five”. In the assay on Ixodes ricinus, the pest or weed control at 1 µg/cm2, 1 µg/cm2 turned out to be 17%. For the same compound, the pest or weed control at 5 µg/cm2, 5 µg/cm2 in the assay with Ixodes ricinus was 46%. The pest or weed control at 25 µg/cm2, 25 µg/cm2 in the assay with Ixodes ricinus worked out at 100%. For the same compound, in the assay with Ixodes ricinus (highest concentration of 1% (25 µg/cm^2)), the “ticks prevented from climbing up in search of a feeding site” value is “all tested ticks”.

Take `C/C=C/c1ccc(O)c(OC)c1` [2-methoxy-4-[(E)-prop-1-enyl]phenol]: the “number of mosquitoes landing within 2 minutes on the warm body” value was 14.0 in the assay on Aedes aegypti [1] (0.04% in ethanol, ethanol control 67.0±8.8 landings); 0.0 with Aedes aegypti [1] (1% in ethanol, ethanol control 67.0±8.8 landings); 57.0 in the assay on Aedes aegypti [1] ([…] in ethanol, ethanol control 67.0±8.8 landings). For the same compound, the landings per minute with Aedes aegypti [1] (concentration of 0.04%) was ~ 10 landings per minute. Also, the “number … with stimulus” value in the assay on Aedes aegypti [2] (0.017 µg/L air, without substance 54.1±4.9) worked out at 12.0; in the assay on Aedes aegypti [2] (0.17 µg/L air, without substance 54.1±4.9) it was 4.0; in the assay with Aedes aegypti [2] (1.7 µg/L air, without substance 54.1±4.9), 11.0. In the assay with Ixodes ricinus, the pest or weed control at 1 µg/cm2, 1 µg/cm2 is 8%. Also, the pest or weed control at 5 µg/cm2, 5 µg/cm2 with Ixodes ricinus stood at 67%. The pest or weed control at 25 µg/cm2, 25 µg/cm2 with Ixodes ricinus was 83%.

In the case of `C=C(C)[C@@H]1CC=C(C)C(=O)C1` [(5R)-2-methyl-5-prop-1-en-2-ylcyclohex-2-en-1-one], the “number of mosquitoes landing within 2 minutes on the warm body” value in the assay on Aedes aegypti [1] (setting [3]) stood at 16.0; in the assay with Aedes aegypti [1] (setting [4]), 3.0; in the assay on Aedes aegypti [1] (setting [5]), 24.0. In addition, the “number … with stimulus” value in the assay with Aedes aegypti [2] (setting [6]) is given as 20.0; in the assay on Aedes aegypti [2] (setting [7]), 27.0; in the assay on Aedes aegypti [2] (setting [8]), 2.0; in the assay with Aedes aegypti [2] (setting [9]), 2.0; in the assay with Aedes aegypti [2] (setting [10]), 2.0. For the same compound, the pest or weed control at 1 µg/cm2, 1 µg/cm2 in the assay with Ixodes ricinus was 50%. Besides, the pest or weed control at 5 µg/cm2, 5 µg/cm2 with Ixodes ricinus stood at 17%. Besides, in the assay on Ixodes ricinus, the pest or weed control at 25 µg/cm2, 25 µg/cm2 was found to be 57%.

As for `CC(C=O)Cc1ccc(C(C)C)cc1` (stereo not shown) [2-methyl-3-(4-propan-2-ylphenyl)propanal], the “number of mosquitoes landing within 2 minutes on the warm body” value in the assay with Aedes aegypti [1] (setting [3]) is listed as 20.0; in the assay on Aedes aegypti [1] (setting [4]), 1.0; in the assay with Aedes aegypti [1] (setting [5]) it was 49.0. In addition, the “number … with stimulus” value with Aedes aegypti [2] (setting [6]) amounted to 26.3; with Aedes aegypti [2] (setting [7]), 21.3; in the assay on Aedes aegypti [2] (setting [8]) it was 7.8; in the assay on Aedes aegypti [2] (setting [9]), 5.0; with Aedes aegypti [2] (setting [10]) it was 7.5. Further, the pest or weed control at 1 µg/cm2, 1 µg/cm2 in the assay on Ixodes ricinus (1 µg/cm^2, diluted in ethanol, ethanol control 1.0±1.2%) was determined as 7%. Further, the pest or weed control at 5 µg/cm2, 5 µg/cm2 in the assay with Ixodes ricinus (5 µg/cm^2, diluted in ethanol, ethanol control 1.0±1.2%) worked out at 46%. In the assay on Ixodes ricinus (25 µg/cm^2, diluted in ethanol, ethanol control 1.0±1.2%), the pest or weed control at 25 µg/cm2, 25 µg/cm2 worked out at 85%.

For the compound `C/C=C/C(=O)C1C(C)=CCCC1(C)C` (stereo not shown) [(E)-1-(2,6,6-trimethylcyclohex-2-en-1-yl)but-2-en-1-one], the “number of mosquitoes landing within 2 minutes on the warm body” value was 34.0 in the assay with Aedes aegypti [1] (setting [11]), 9.0 in the assay with Aedes aegypti [1] (setting [12]) and 70.0 in the assay with Aedes aegypti [1] (setting [13]). Moreover, the “number … with stimulus” value in the assay with Aedes aegypti [2] (setting [14]) was determined as 6.0; with Aedes aegypti [2] (setting [15]), 11.0; in the assay with Aedes aegypti [2] (setting [16]) it was 4.0; in the assay with Aedes aegypti [2] (setting [17]) it was 4.0; with Aedes aegypti [2] (setting [18]) it was 1.0. Further, in the assay on Aedes aegypti [2] (at all five tested concentrations), the repulsion result was “more than 80%”. Further, the “landings in 2 minutes” value in the assay on Aedes aegypti [2] was “less than five”. Besides, the pest or weed control at 1 µg/cm2, 1 µg/cm2 with Ixodes ricinus was 13%. The pest or weed control at 5 µg/cm2, 5 µg/cm2 in the assay on Ixodes ricinus amounted to 6%. Also, the pest or weed control at 25 µg/cm2, 25 µg/cm2 in the assay with Ixodes ricinus stood at 83%.

Consider `CC(C)=CCC/C(C)=C/C=O` [(2E)-3,7-dimethylocta-2,6-dienal], for which the “number of mosquitoes landing within 2 minutes on the warm body” value in the assay on Aedes aegypti [1] (setting [3]) was 16.0; in the assay on Aedes aegypti [1] (setting [4]) it was 2.0; with Aedes aegypti [1] (setting [5]) it was 89.0. Moreover, the “number … with stimulus” value with Aedes aegypti [2] (setting [6]) was 25.3; with Aedes aegypti [2] (setting [7]) it was 15.7; in the assay on Aedes aegypti [2] (setting [8]), 15.3; in the assay with Aedes aegypti [2] (setting [9]), 14.7; in the assay on Aedes aegypti [2] (setting [10]) it was 23.0. Further, the decrease of landings in the assay on Aedes aegypti [2] (identical at all concentrations tested) is recorded as ~ 67%. In addition, in the assay on Ixodes ricinus, the pest or weed control at 1 µg/cm2, 1 µg/cm2 was 15%. The pest or weed control at 5 µg/cm2, 5 µg/cm2 in the assay on Ixodes ricinus came to 0%. Moreover, in the assay with Ixodes ricinus, the pest or weed control at 25 µg/cm2, 25 µg/cm2 worked out at 58%.
